From patent US8269000B2, “Substituted pyrimidine and triazine compounds” (Gruenenthal GmbH, priority 2008, dated 2012) come the findings set out here.

The target of test [1] is T1, human B1R (Homo sapiens, UniProt P46663).
T1 construct: expressed in transfected cells; host or cells: CHO K1 cells
T1 sequence (P46663 1-353): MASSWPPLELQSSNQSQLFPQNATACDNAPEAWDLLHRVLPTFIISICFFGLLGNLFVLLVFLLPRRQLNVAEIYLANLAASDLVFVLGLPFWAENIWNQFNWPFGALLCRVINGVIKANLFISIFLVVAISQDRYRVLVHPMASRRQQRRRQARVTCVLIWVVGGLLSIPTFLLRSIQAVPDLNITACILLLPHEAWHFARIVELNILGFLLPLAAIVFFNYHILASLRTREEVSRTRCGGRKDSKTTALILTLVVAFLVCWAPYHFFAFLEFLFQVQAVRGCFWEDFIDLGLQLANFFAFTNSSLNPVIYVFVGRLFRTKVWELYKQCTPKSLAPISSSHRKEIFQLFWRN
Kind of test: FLIPR Ca2+ functional study on bradykinin receptor 1 (hB1R CHO K1 cells). It is filed as cell-based. The following applies: % inhibition human B1R at 10 μM, read-out: % inh. (hum. B1R) 10 μM. As to the method:
The agonistic or antagonistic activity of substances can be quantified on the bradykinin receptor 1 (B1R) of the species human and rat using ectopically expressing cell lines (CHO K1 cells) and with the aid of a Ca^2+-sensitive dye (Fluo-4) using a fluorescent imaging plate reader (FLIPR). The indication in % activation is based on the Ca^2+ signal after addition of Lys-Des-Arg^9-bradykinin (0.5 nM) or Des-Arg^9-bradykinin (100 nM). Antagonists lead to suppression of the Ca^2+ influx after the addition of the agonist. % Inhibition compared with the maximum achievable inhibition is indicated.
The agonistic or antagonistic activity of substances can be determined on the bradykinin receptor 1 (B1R) of the species human and rat using the following assay. According to this assay, the Ca^2+ influx through the channel is quantified with the aid of a Ca^2+-sensitive dye (Fluo-4 type, Molecular Probes Europe BV, Leiden, Netherlands) using a Fluorescent Imaging Plate Reader (FLIPR, Molecular Devices, Sunnyvale, USA).
Chinese hamster ovary cells (CHO K1 cells) which have been stably transfected with the human B1R gene (hB1R cells) or with the B1R gene of the rat (rB1R cells) are used. For functional studies, the cells are plated out on black 96-well plates having a clear base (BD Biosciences, Heidelberg, Germany or Greiner, Frickenhausen, Germany) in a density of 20,000-35,000 cells/well. The cells are left overnight at 37° C. and with 5% CO2 in culture medium (hB1R cells: Nutrient Mixture Ham's F12, Gibco Invitrogen GmbH, Karlsruhe, Germany or DMEM, Sigma-Aldrich, Taufkirchen, Germany; rB1R cells: D-MEM/F12, Gibco Invitrogen GmbH, Karlsruhe, Germany), with 10 vol.% FBS (fetal bovine serum, Gibco Invitrogen GmbH, Karlsruhe, Germany or PAN Biotech GmbH, Aidenbach, Germany). On the following day, the cells are loaded for 60 minutes at 37° C. with 2.13 μM Fluo-4 (Molecular Probes Europe BV, Leiden, Netherlands) in HBSS buffer (Hank's buffered saline solution, Gibco Invitrogen GmbH, Karlsruhe, Germany) […] (Sigma-Aldrich, Taufkirchen, Germany) and 10 mM HEPES (Sigma-Aldrich, Taufkirchen, Germany). The plates are then washed twice with HBSS buffer, and HBSS buffer additionally containing 0.1% BSA (bovine serum albumin; Sigma-Aldrich, Taufkirchen, Germany), 5.6 mM glucose and 0.05% gelatin (Merck KGaA, Darmstadt, Germany) is added to the plates. After incubation for a further 20 minutes at room temperature, the plates are inserted into the FLIPR for Ca^2+ measurement. Alternatively, washing is carried out with buffer A (15 mM HEPES, 80 mM NaCl, 5 mM KCl, 1.2 mM CaCl2, 0.7 mM MgSO4, 2 g/l glucose, 2.5 mM probenecid) followed by loading with buffer A with added 2.5 μM Fluo-4 and 0.025% Pluronic F127 (Sigma-Aldrich, Taufkirchen, Germany). The cells are then washed twice with buffer A and incubated for 30 minutes at room temperature with buffer A additionally containing 0.05% BSA and 0.05% gelatin and are then inserted into the FLIPR for Ca^2+ measurement. The Ca^2+-dependent fluorescence is measured before and after the addition of substances (λex=488 nm, λem=540 nm). Quantification is carried out by measuring the highest fluorescence intensity (FC, fluorescence counts) over time.
The FLIPR protocol consists of two substance additions. Test substances (10 μM) are first pipetted onto the cells and the Ca^2+ influx is compared with the control (hB1R: Lys-Des-Arg^9-bradykinin>=50 nM; rB1R: Des-Arg^9-bradykinin 10 μM). This gives the activation in %, based on the Ca^2+ signal after addition of Lys-Des-Arg^9-bradykinin (>=50 nM) or Des-Arg^9-bradykinin (10 μM). After 10-20 minutes' incubation, Lys-Des-Arg^9-bradykinin (hB1R) or Des-Arg^9-bradykinin (rB1R) is applied in the concentration of the EC80, and the influx of Ca^2+ is likewise determined. Antagonists lead to suppression of the Ca^2+ influx. The % inhibition compared with the maximum achievable inhibition is calculated. […]

For test [2], the target named is T2, rat B1R (Rattus norvegicus, UniProt P97583).
T2 construct: expressed in transfected cells; host or cells: CHO K1 cells
T2 sequence (P97583 1-337): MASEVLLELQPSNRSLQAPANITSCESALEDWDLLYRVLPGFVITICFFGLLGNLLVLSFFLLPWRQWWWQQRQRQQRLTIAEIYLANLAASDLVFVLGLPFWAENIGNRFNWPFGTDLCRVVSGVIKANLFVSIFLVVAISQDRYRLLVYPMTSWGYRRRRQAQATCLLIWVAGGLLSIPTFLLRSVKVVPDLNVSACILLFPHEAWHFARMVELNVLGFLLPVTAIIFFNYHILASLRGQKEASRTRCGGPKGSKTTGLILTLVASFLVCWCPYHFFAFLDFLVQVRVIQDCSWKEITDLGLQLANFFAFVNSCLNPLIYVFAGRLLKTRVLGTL
Kind of test: FLIPR Ca2+ functional study on bradykinin receptor 1 (rB1R CHO K1 cells). It is filed as cell-based. The following applies: CHO-K1, % inhibition rat B1R at 10 μM, read-out: % inh. (rat B1R) 10 μM. A digest of the protocol:
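CHO K1 cells stably expressing human or rat B1R were loaded with Fluo-4 and read on FLIPR (ex 488/em 540 nm, peak counts). Test compound (10 μM, or a concentration range for IC50) was added first for % activation versus control agonist; after 10-20 min, EC80 Lys-Des-Arg9-bradykinin (human) or Des-Arg9-bradykinin (rat) was added, giving % inhibition of maximum. n=2-3, N≥2.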

In the case of `COc1cc(C)c(S(=O)(=O)N(C)CCOc2nccc(N3CCN(c4ccncc4)CC3)n2)c(C)c1` [Example G-002, 4-methoxy-N,2,6-trimethyl-N-[2-[[4-[4-(4-pyridyl)-1-piperazinyl]-2-pyrimidinyl]oxy]ethyl]benzenesulfonamide], the inhibition at 10 µM in test [1] is 97%; in test [2] it was 109%.

`COc1cc(C)c(S(=O)(=O)N2CCC[C@H]2COc2nccc(N3CCC(CCN4CCCC4)CC3)n2)c(C)c1` [G_CC-016, 2-[[(2S)-1-(4-methoxy-2,6-dimethylphenyl)sulfonyl-2-pyrrolidinyl]methoxy]-4-[4-(2-1-pyrrolidinylethyl)-1-piperidinyl]pyrimidine]: the inhibition at 10 µM is 96% in test [1] and 100% in test [2].

For `COc1cc(C)c(S(=O)(=O)N2CCC[C@H]2COc2nccc(N3CCC4(CC3)C(=O)NCN4c3ccccc3)n2)c(C)c1` [G_CC-035, 8-[2-[[(2S)-1-(4-methoxy-2,6-dimethylphenyl)sulfonyl-2-pyrrolidinyl]methoxy]-4-pyrimidinyl]-4-phenyl-2,4,8-triazaspiro[4.5]decan-1-one], the figures for the inhibition at 10 µM in test [1] and in test [2] were -1% and 99%, respectively.

With `COc1cc(C)c(S(=O)(=O)N(CCOc2nccc(NCCC3CCN(c4ccncc4)CC3)n2)C2CC2)c(C)c1` [Example G-006, N-cyclopropyl-4-methoxy-2,6-dimethyl-N-[2-[[4-[2-[1-(4-pyridyl)-4-piperidinyl]ethylamino]-2-pyrimidinyl]oxy]ethyl]benzenesulfonamide], the results for the inhibition at 10 µM in test [1] and in test [2] were 99% and 94%, respectively.

Take `COc1cc(C)c(S(=O)(=O)N2CCCCC2COc2nccc(N3CCC(CCN4CCCC4)CC3)n2)c(C)c1` (stereo not shown) [G_CC-003, 2-[[1-(4-methoxy-2,6-dimethylphenyl)sulfonyl-2-piperidinyl]methoxy]-4-[4-(2-1-pyrrolidinylethyl)-1-piperidinyl]pyrimidine]: the inhibition at 10 µM is 100% in test [1] and 102% in test [2].

`COc1cc(C)c(S(=O)(=O)NC2(COc3nccc(N4CCC5(CCN(c6ccncc6)CC5)CC4)n3)CCC2)c(C)c1` [Example G-022, 4-methoxy-2,6-dimethyl-N-[1-[[4-(9-pyridin-4-yl-3,9-diazaspiro[5.5]undecan-3-yl)-pyrimidin-2-yl]oxy-methyl]-cyclobutyl]-benzenesulfonic acid amide]: the results for the inhibition at 10 µM in test [1] and in test [2] were 100% and 103%, respectively.

Turning to `COc1cc(C)c(S(=O)(=O)N(C)CCOc2nccc(N3CCC4(CCN(c5ccncc5)CC4)CC3)n2)c(C)c1` [G_CC-047, 4-methoxy-N,2,6-trimethyl-N-[2-[[4-[3-(4-pyridyl)-3,9-diazaspiro[5.5]undecan-9-yl]-2-pyrimidinyl]oxy]ethyl]benzenesulfonamide], the inhibition at 10 µM was determined as 100% in test [1] and 99% in test [2].

`COc1cc(C)c(S(=O)(=O)N(CCOc2nccc(N3CCc4cc(CN5CCC5)ccc4C3)n2)C2CC2)c(C)c1` [Example G-013, N-[2-[[4-[6-(1-azetidinylmethyl)-3,4-dihydro-1H-isoquinolin-2-yl]-2-pyrimidinyl]oxy]ethyl]-N-cyclopropyl-4-methoxy-2,6-dimethylbenzenesulfonamide]: the inhibition at 10 µM was determined as 92% in test [1] and 102% in test [2].

On to `COc1cc(C)c(S(=O)(=O)N2CCCCC2COc2nccc(N(C)CCN3CCC(c4ccccc4)(N(C)C)CC3)n2)c(C)c1` (stereo not shown) [G_CC-004, N-[2-(4-dimethylamino-4-phenyl-1-piperidinyl)ethyl]-2-[[1-(4-methoxy-2,6-dimethylphenyl)sulfonyl-2-piperidinyl]methoxy]-N-methyl-4-pyrimidineamine], for which the inhibition at 10 µM in test [1] and in test [2] was 100% each time.

`COc1cc(C)c(S(=O)(=O)N(CCN(C)c2nccc(N3CCC4(CCN(c5ccncc5)CC4)CC3)n2)C2CC2)c(C)c1` [Example I-005, N-cyclopropyl-4-methoxy-2,6-dimethyl-N-[2-[methyl-[4-(9-pyridin-4-yl-3,9-diazaspiro[5.5]undecan-3-yl)-pyrimidin-2-yl]-amino]-ethyl]-benzenesulfonic acid amide]: the inhibition at 10 µM in test [1] came out at 96%; in test [2], 111%.

`COc1cc(C)c(S(=O)(=O)NC(C)(C)COc2nccc(N3CCC4(CCN(c5ccncc5)CC4)CC3)n2)c(C)c1` [Example G-024, N-[1,1-dimethyl-2-[4-(9-pyridin-4-yl-3,9-diazaspiro[5.5]undecan-3-yl)-pyrimidin-2-yl]oxy-ethyl]-4-methoxy-2,6-dimethyl-benzenesulfonic acid amide]: the inhibition at 10 µM amounted to 99% in test [1] and 113% in test [2].

Take `COc1cc(C)c(S(=O)(=O)N(C)CCOc2ccnc(N3CCC4(CCN(c5ccncc5)CC4)CC3)n2)c(C)c1` [H_CC-029, 4-methoxy-N,2,6-trimethyl-N-[2-[[2-[3-(4-pyridyl)-3,9-diazaspiro[5.5]undecan-9-yl]-4-pyrimidinyl]oxy]ethyl]benzenesulfonamide]: the inhibition at 10 µM in test [1] came out at 92%; in test [2] it was 101%.

For `COc1cc(C)c(S(=O)(=O)N2CCCCC2COc2nccc(N3CCC(N4CCN(C)CC4)CC3)n2)c(C)c1` (stereo not shown) [G_CC-011, 2-[[1-(4-methoxy-2,6-dimethylphenyl)sulfonyl-2-piperidinyl]methoxy]-4-[4-(4-methyl-1-piperazinyl)-1-piperidinyl]pyrimidine], the inhibition at 10 µM in test [1] was found to be 91%; in test [2], 96%.

Turning to `COc1cc(C)c(S(=O)(=O)N(C)C(COc2ccnc(N3CCC4(CCN(c5ccncc5)CC4)CC3)n2)c2ccccc2)c(C)c1` (stereo not shown) [H_CC-037, 4-methoxy-N,2,6-trimethyl-N-[1-phenyl-2-[[2-[3-(4-pyridyl)-3,9-diazaspiro[5.5]undecan-9-yl]-4-pyrimidinyl]oxy]ethyl]benzenesulfonamide], the inhibition at 10 µM in test [1] is 54%; in test [2], 102%.
